Measurements as given in US9556165B2 (priority 2012, dated 2017).
In brackets after ≈: the same amount, converted by molar mass. Where two headings read alike, the source gives them in different places.

Legend:
Format in all cases: cell-based
E. coli ATCC25922 = assay: MIC determination, broth microdilution (CLSI); settings: Escherichia coli, ATCC25922, strain 1
E. cloacae 34654 = assay: MIC determination, broth microdilution (CLSI); settings: Enterobacter cloacae, 34654, strain 3
C. freundii K21/3034 = assay: MIC determination, broth microdilution (CLSI); settings: Citrobacter freundii, K21/3034, strain 4
M. morganii 126/3048 = assay: MIC determination, broth microdilution (CLSI); settings: Morganella morganii, 126/3048, strain 5
P. aeruginosa PAO1 = assay: MIC determination, broth microdilution (CLSI); settings: Pseudomonas aeruginosa, PAO1, strain 6
[1] = tested on: P. aeruginosa 2297 (AmpC wt); assay: MIC determination, broth microdilution (CLSI); settings: Pseudomonas aeruginosa, strain 7
[2] = tested on: P. aeruginosa 2297-con (AmpC derepressed); assay: MIC determination, broth microdilution (CLSI); settings: Pseudomonas aeruginosa, read-out: strain 8 MIC, strain 8
A. baumannii ATCC15308 = assay: MIC determination, broth microdilution (CLSI); settings: Acinetobacter baumannii, ATCC15308, strain 9
S. aureus 133 = assay: MIC determination, broth microdilution (CLSI)
E. coli J62 = assay: MIC determination, broth microdilution (CLSI); settings: Escherichia coli, J62, strain 17; broth microdilution; read-out: MIC strain 17 (E. coli J62)
Bacteria = assay: MIC determination in combination with β-lactamase inhibitors (constant 4 μg/mL)
K. pneumoniae 60 = assay: MIC determination, broth microdilution (CLSI); settings: Klebsiella pneumoniae, 60, strain 2
E. coli J62-TEM-3 = assay: MIC determination, broth microdilution (CLSI); settings: Escherichia coli, J62TEM3, read-out: MIC strain 18 (E. coli J62-TEM-3), strain 18; broth microdilution
H. influenzae ATCC 49247 = assay: MIC determination, broth microdilution (CLSI); settings: Haemophilus influenzae, ATCC49247, strain 12; broth microdilution; read-out: MIC strain 12 (H. influenzae ATCC 49247)
S. pneumoniae 113 = assay: MIC determination, broth microdilution (CLSI); settings: Streptococcus pneumoniae, 113, strain 13; broth microdilution; read-out: MIC strain 13 (S. pneumoniae 113)
B. fragilis 6688 = assay: MIC determination, broth microdilution (CLSI); settings: Bacteroides fragilis, 6688, strain 15; broth microdilution; read-out: MIC strain 15 (B. fragilis 6688)
[3] = Staphylococcus aureus, 133, strain 14, broth microdilution, read-out: MIC strain 14 (S. aureus 133)
[4] = Staphylococcus aureus, 133, strain 11, read-out: strain 11 MIC

SMILES | MIC (E. coli ATCC25922) | MIC (E. cloacae 34654) | MIC (C. freundii K21/3034) | MIC (M. morganii 126/3048) | MIC (P. aeruginosa PAO1) | MIC [1] | MIC [2] | MIC (A. baumannii ATCC15308) | MIC (S. aureus 133; [3]) | MIC (E. coli J62) | MIC strain 19 (E. coli J62-TEM-3 + 4 μg/mL clavulanic acid) (Bacteria) | MIC strain 20 (E. coli J62-TEM-3 + 4 μg/mL sulbactam) (Bacteria) | MIC strain 21 (E. coli J62-TEM-3 + 4 μg/mL tazobactam) (Bacteria) | MIC (K. pneumoniae 60) | MIC (E. coli J62-TEM-3) | MIC (S. aureus 133; [4]) | MIC (H. influenzae ATCC 49247) | MIC (S. pneumoniae 113) | MIC (B. fragilis 6688)
C[C@H]1[C@H](NC(=O)/C(=N\OCCOc2cccc(C(=N)N)c2)c2csc(N)n2)C(=O)N1S(=O)(=O)O [Example 53, (2S,3S)-3-{[(2Z)-2-(2-Amino-1,3-thiazol-4-yl)-2-{[2-(3-carbamimidoylphenoxy)ethoxy]imino}acetyl]amino}-2-methyl-4-oxoazetidine-1-sulfonic acid] | 0.5 µg/mL (≈ 0.977 µM) | 0.5 µg/mL (≈ 0.977 µM) | 0.5 µg/mL (≈ 0.977 µM) | 2 µg/mL (≈ 3.91 µM) | 16 µg/mL (≈ 31.3 µM) | 16 µg/mL (≈ 31.3 µM) | 32 µg/mL (≈ 62.6 µM) | 4 µg/mL (≈ 7.82 µM) | 32 µg/mL (≈ 62.6 µM) | 1 µg/mL (≈ 1.95 µM) | 1 µg/mL | 1 µg/mL | 1 µg/mL |  |  |  |  |  | 
CC(C)NC(=N)c1ccc(OCCO/N=C(\C(=O)N[C@@H]2C(=O)N(S(=O)(=O)O)[C@H]2C)c2csc(N)n2)cc1 [Example 54, (2S,3S)-3-({(2Z)-2-(2-Amino-1,3-thiazol-4-yl)-2-[(2-{4-[N-(propan-2-yl)carbamimidoyl]phenoxy}ethoxy)imino]acetyl}amino)-2-methyl-4-oxoazetidine-1-sulfonic acid] | 0.5 µg/mL (≈ 0.903 µM) | 0.5 µg/mL (≈ 0.903 µM) | 0.25 µg/mL (≈ 0.452 µM) | 1 µg/mL (≈ 1.81 µM) | 4 µg/mL (≈ 7.23 µM) | 8 µg/mL (≈ 14.5 µM) |  | 4 µg/mL (≈ 7.23 µM) | 2 µg/mL (≈ 3.61 µM) | 0.5 µg/mL (≈ 0.903 µM) | 0.5 µg/mL | 0.25 µg/mL | 0.5 µg/mL | 0.5 µg/mL (≈ 0.903 µM) | 16 µg/mL (≈ 28.9 µM) |  |  |  | 
C[C@H]1[C@H](NC(=O)/C(=N\OCCOCc2cc(C(=N)N)cs2)c2csc(N)n2)C(=O)N1S(=O)(=O)O [Example 56, (2S,3S)-3-{[(2Z)-2-(2-Amino-1,3-thiazol-4-yl)-2-({2-[(4-carbamimidoylthiophen-2-yl)methoxy]ethoxy}imino)acetyl]amino}-2-methyl-4-oxoazetidine-1-sulfonic acid] | 2 µg/mL (≈ 3.76 µM) | 4 µg/mL (≈ 7.52 µM) | 0.5 µg/mL (≈ 0.941 µM) | 0.5 µg/mL (≈ 0.941 µM) | 32 µg/mL (≈ 60.2 µM) | 32 µg/mL (≈ 60.2 µM) |  | 4 µg/mL (≈ 7.52 µM) | 8 µg/mL (≈ 15 µM) | 2 µg/mL (≈ 3.76 µM) | 1 µg/mL | 4 µg/mL | 4 µg/mL | 0.5 µg/mL (≈ 0.941 µM) | 32 µg/mL (≈ 60.2 µM) | 1 µg/mL (≈ 1.88 µM) | 2 µg/mL (≈ 3.76 µM) | 4 µg/mL (≈ 7.52 µM) | 32 µg/mL (≈ 60.2 µM)
C[C@H]1[C@H](NC(=O)/C(=N\OCCOc2nnc(C(=N)N)s2)c2csc(N)n2)C(=O)N1S(=O)(=O)O [Example 65, (2S,3S)-3-{[(2Z)-2-(2-Amino-1,3-thiazol-4-yl)-2-({2-[(5-carbamimidoyl-1,3,4-thiadiazol-2-yl)oxy]ethoxy}imino)acetyl]amino}-2-methyl-4-oxoazetidine-1-sulfonic acid] | 0.5 µg/mL (≈ 0.962 µM) | 0.5 µg/mL (≈ 0.962 µM) | 0.25 µg/mL (≈ 0.481 µM) | 0.125 µg/mL (≈ 0.241 µM) | 16 µg/mL (≈ 30.8 µM) | 32 µg/mL (≈ 61.6 µM) |  | 8 µg/mL (≈ 15.4 µM) | 8 µg/mL (≈ 15.4 µM) | 1 µg/mL (≈ 1.92 µM) | 0.5 µg/mL | 1 µg/mL | 2 µg/mL | 0.25 µg/mL (≈ 0.481 µM) | 32 µg/mL (≈ 61.6 µM) | 0.25 µg/mL (≈ 0.481 µM) | 0.5 µg/mL (≈ 0.962 µM) | 1 µg/mL (≈ 1.92 µM) | 16 µg/mL (≈ 30.8 µM)
